Results reported in US3968101A, “8-Substituted cyclic nucleotides by free radical alkylation and acylation” (ICN Pharmaceuticals, Inc., priority 1974, dated 1976).
Structures can show the parent of a compound that is named as a salt.

Legend:
[1] = tested on: cAMP-dependent protein kinase; experiment: Activation of cAMP-dependent protein kinase isolated from beef brain; format: biochemical, bovine; conditions: for Protein Kinase, Ka ' Bovine: ratio of Ka of cAMP to Ka of test compound, bovine brain cAMP-dependent kinase; for activation of the cAMP-dependent protein kinase (in words): bovine brain kinase
Text: The new 8-substituted purine cyclic nucleotides were examined for their ability to stimulate both a cAMP-dependent protein kinase isolated from beef brain and a cGMP-dependent protein kinase isolated from lobster tail (see Table II).
a Ka ' = The ratio of Ka of the dependent cyclic nucleotide (cAMP for bovine brain and cGMP for lobster tail) to the Ka of the test compound.

[2] = tested on: cGMP-dependent protein kinase; experiment: Activation of cGMP-dependent protein kinase isolated from lobster tail; format: biochemical; conditions: for Protein Kinase, Ka ' Lobster: ratio of Ka of cGMP to Ka of test compound, lobster tail cGMP-dependent kinase; for ability to activate the cGMP-dependent protein kinase (in words): lobster tail kinase; for specificity between cGMP-dependent and cAMP-dependent protein kinase (in words): lobster tail cGMP-dependent versus bovine brain cAMP-dependent kinase
Text: The new 8-substituted purine cyclic nucleotides were examined for their ability to stimulate both a cAMP-dependent protein kinase isolated from beef brain and a cGMP-dependent protein kinase isolated from lobster tail (see Table II). […]. Acad. Sci. USA 64, 1349, Kuo et al, 1971, J. Biol. Chem. 246,7159) to be mediated by its activation of a protein kinase.
The Ka of cAMP for the cAMP-dependent protein kinase is about the same (see footnote a, Table II) as the Ka of cGMP for the cGMP-dependent protein kinase. Comparison of the Ka ' values (the ratio of Ka of the dependent cyclic nucleotide to the Ka of the test compound) is, therefore, an accurate guide to the type of kinase stimulation seen at a given cyclic nucleotide concentration.
a Ka ' = The ratio of Ka of the dependent cyclic nucleotide (cAMP for bovine brain and cGMP for lobster tail) to the Ka of the test compound. […]

[3] = tested on: cyclic nucleotide phosphodiesterase; experiment: Susceptibility to hydrolysis by rabbit kidney cyclic nucleotide phosphodiesterase; format: biochemical; conditions: rabbit kidney enzyme preparation; times the rate of cAMP
Text: All compounds were examined for their susceptibility to hydrolysis by cyclic nucleotide phosphodiesterase. Both cGMP and cIMP were hydrolyzed at approximately one-half the rate of cAMP by a rabbit kidney enzyme preparation generally prepared in the manner described below for rabbit lung enzyme. The new 8-substituted derivatives were not substrates (rate of hydrolysis<0.05 that of the rate of cAMP hydrolysis) within the limits of detection of our assay, with the sole exception of 8-(1-hydroxybutyl)-cGMP (12), which was hydrolyzed at a rate 0.18 times the rate of hydrolysis of cAMP. This finding is in agreement with the general conclusion that 8-substitution of a purine 3',5'-cyclic ribonucleotide greatly reduces the ability of the resulting derivative to serve as a substrate for cyclic nucleotide phosphodiesterase.

[4] = biological target: cyclic nucleotide phosphodiesterase; experiment: Inhibition of cAMP hydrolysis by rabbit lung cyclic nucleotide phosphodiesterase; format: biochemical; conditions: rabbit lung enzyme; 50% inhibition of cleavage of cAMP, cAMP = 1.6 × 10^-7 M; read-out: Phosphodiesterase Inhibition, I50 Lung
Text: (§1) Homogenates of rabbit lung and beef heart are made in sucrose-Tris-magnesium buffer and are subjected to centrifugation at low speed to remove nuclei and cell debris. […] The precipitation which forms at 0-50% saturation is collected by centrifugation at 20,000 × g, dissolved in Tris-magnesium buffer, and dialyzed overnight against the same buffer.

[5] = biological target: cyclic nucleotide phosphodiesterase; experiment: Inhibition of cAMP hydrolysis by beef heart cyclic nucleotide phosphodiesterase; format: biochemical; conditions: beef heart enzyme; 50% inhibition of cleavage of cAMP, cAMP = 1.6 × 10^-7 M; read-out: Phosphodiesterase Inhibition, I50 Heart
Text: as §1

| Compound | Protein Kinase, Ka ' Bovine [1] | Protein Kinase, Ka ' Lobster [2] | rate of hydrolysis relative to the rate of cAMP hydrolysis [3] | IC50 [4] | IC50 [5] | ability to activate the cGMP-dependent protein kinase (in words) [2] | activation of the cAMP-dependent protein kinase (in words) [1] | specificity between cGMP-dependent and cAMP-dependent protein kinase (in words) [2] |
| --- | --- | --- | --- | --- | --- | --- | --- | --- |
| CC(C)c1nc2c(=O)[nH]c(N)nc2n1[C@@H]1O[C@@H]2COP(=O)(O)O[C@H]2[C@H]1O [Compound 3, 8-Isopropylguanosine 3',5'-Cyclic Phosphate] | < 0.001 | 0.70 |  | 330 µM | 100 µM |  |  |  |
| Nc1nc2c(nc(Cc3ccccc3)n2[C@@H]2O[C@@H]3COP(=O)(O)O[C@H]3[C@H]2O)c(=O)[nH]1 [Compound 4, 8-Benzylguanosine 3',5'-Cyclic Phosphate] | < 0.001 | 0.10 |  | 130 µM | 140 µM |  |  |  |
| CC(C)(C)Cc1nc2c(=O)[nH]c(N)nc2n1[C@@H]1O[C@@H]2COP(=O)(O)O[C@H]2[C@H]1O [Compound 5, 8-Neopentylguanosine 3',5'-Cyclic Phosphate] | < 0.001 | 0.16 |  | 70 µM | 100 µM |  |  |  |
| CCCC(=O)c1nc2c(=O)[nH]c(N)nc2n1[C@@H]1O[C@@H]2COP(=O)(O)O[C@H]2[C@H]1O [Compound 7, 8-Butyrylguanosine 3',,5' -cyclic phosphate] | 0.064 | 0.20 |  | 70 µM | 90 µM |  |  |  |
| CC(C)C(=O)c1nc2c(=O)[nH]c(N)nc2n1[C@@H]1O[C@@H]2COP(=O)(O)O[C@H]2[C@H]1O [Compound 8, 8-Isobutyrylguanosine 3',5'-Cyclic Phosphate Ammonium Salt] | < 0.01 | 0.13 |  |  | 11 µM |  |  |  |
| Nc1nc2c(nc(C(=O)c3ccccc3)n2[C@@H]2O[C@@H]3COP(=O)(O)O[C@H]3[C@H]2O)c(=O)[nH]1 [Compound 9, 8-Benzoylguanosine 3',5'-cyclic phosphate] | < 0.005 | 0.68 |  |  | 50 µM |  |  |  |
| CCCC(O)c1nc2c(=O)[nH]c(N)nc2n1[C@@H]1O[C@@H]2COP(=O)(O)O[C@H]2[C@H]1O (some centres unmarked) [Compound 12, 8-(1-Hydroxybutyl)guanosine 3',5'-Cyclic Phosphate] | < 0.001 | 0.62 | 0.18 | 133 µM | 29 µM |  |  |  |
| CC(C)C(O)c1nc2c(=O)[nH]c(N)nc2n1[C@@H]1O[C@@H]2COP(=O)(O)O[C@H]2[C@H]1O (some centres unmarked) [Compound 13, 8-(1-Hydroxy-2-methylpropyl)guanosine 3',5'-Cyclic Phosphate] | < 0.001 | 0.72 |  | 180 µM | 38 µM |  |  |  |
| Nc1nc2c(nc(C(O)c3ccccc3)n2[C@@H]2O[C@@H]3COP(=O)(O)O[C@H]3[C@H]2O)c(=O)[nH]1 (stereo partly drawn) [Compound 14, 8-(α-Hydroxybenzyl)guanosine 3',5'-Cyclic Phosphate] | < 0.005 | 2.3 |  | 140 µM | > 300 µM | superior to cGMP |  |  |
| CC(=NNC(N)=S)c1nc2c(=O)[nH]c(N)nc2n1[C@@H]1O[C@@H]2COP(=O)(O)O[C@H]2[C@H]1O [Compound 15, 8-Acetylguanosine 3',5'-Cyclic Phosphate Thiosemicarbazone] | < 0.005 | 0.052 |  | 26 µM | 50 µM |  |  |  |
| CC(=NNC(N)=O)c1nc2c(=O)[nH]c(N)nc2n1[C@@H]1O[C@@H]2COP(=O)(O)O[C@H]2[C@H]1O [Compound 16, 8-Acetylguanosine 3',5'-Cyclic Phosphate Semicarbazone] | < 0.005 | 0.031 |  | 200 µM | 125 µM |  |  |  |
| CC(=NNC(=O)Nc1ccccc1)c1nc2c(=O)[nH]c(N)nc2n1[C@@H]1O[C@@H]2COP(=O)(O)O[C@H]2[C@H]1O [Compound 17, 8-Acetylguanosine 3',5'-Cyclic Phosphate 4-Phenylsemicarbazone] | < 0.01 | 0.11 |  | 150 µM | 40 µM |  |  |  |
| CC(=NNc1ccccc1)c1nc2c(=O)[nH]c(N)nc2n1[C@@H]1O[C@@H]2COP(=O)(O)O[C@H]2[C@H]1O [Compound 18, 8-Acetylguanosine 3',5'-Cyclic Phosphate Phenylhydrazone] | < 0.005 | 0.44 |  | 2000 µM | 100 µM |  |  |  |
| Cn1c(=O)c2[nH]cnc2n(C)c1=O [theophylline, reference compound] |  |  |  | 200 µM | 100 µM |  |  |  |

Now from value to compound, other results behind:

| Protein Kinase, Ka ' Bovine [1] | Protein Kinase, Ka ' Lobster [2] | rate of hydrolysis relative to the rate of cAMP hydrolysis [3] | IC50 [4] | IC50 [5] | ability to activate the cGMP-dependent protein kinase (in words) [2] | activation of the cAMP-dependent protein kinase (in words) [1] | Compound | specificity between cGMP-dependent and cAMP-dependent protein kinase (in words) [2] |
| --- | --- | --- | --- | --- | --- | --- | --- | --- |
| 0.023 | 1.0 | approximately one-half |  |  |  |  | Nc1nc2c(ncn2[C@@H]2O[C@@H]3COP(=O)(O)O[C@H]3[C@H]2O)c(=O)[nH]1 [Compound 1, guanosine 3',5'-cyclic phosphate, reference compound] |  |
| 0.015 | 0.066 |  | 400 µM | 200 µM |  |  | Cc1nc2c(=O)[nH]c(N)nc2n1[C@@H]1O[C@@H]2COP(=O)(O)O[C@H]2[C@H]1O [Compound 2, 8-Methylguanosine 3',5'-Cyclic Phosphate] |  |
| < 0.001 | 0.56 |  | 70 µM | 170 µM |  |  | CC(=O)c1nc2c(=O)[nH]c(N)nc2n1[C@@H]1O[C@@H]2COP(=O)(O)O[C@H]2[C@H]1O [Compound 6, 8-Acetylguanosine 3',5' -Cyclic Phosphate] |  |
| < 0.001 | 1.5 |  | 400 µM | 100 µM | superior to cGMP |  | NC(=O)c1nc2c(=O)[nH]c(N)nc2n1[C@@H]1O[C@@H]2COP(=O)(O)O[C@H]2[C@H]1O [Compound 10, 8-Carbamoylguanosine 3',5'-Cyclic Phosphate] |  |
| < 0.01 | 1.8 |  | 400 µM | 170 µM | superior to cGMP |  | CC(O)c1nc2c(=O)[nH]c(N)nc2n1[C@@H]1O[C@@H]2COP(=O)(O)O[C@H]2[C@H]1O (some centres unmarked) [Compound 11, 8-(1-Hydroxyethyl)guanosine 3',5'-Cyclic Phosphate] |  |
| 0.59 | 0.085 | approximately one-half | 100 µM | 3.9 µM |  |  | O=c1[nH]cnc2c1ncn2[C@@H]1O[C@@H]2COP(=O)(O)O[C@H]2[C@H]1O [Compound 19, Inosine 3',5'-cyclic phosphate, reference compound] | greater activation of the cAMP-dependent kinase |
| 0.022 | 0.0041 |  | 2000 µM | 1000 µM | slight activation | slight activation | CC(=O)c1nc2c(=O)[nH]cnc2n1[C@@H]1O[C@@H]2COP(=O)(O)O[C@H]2[C@H]1O [Compound 20, 8-Acetylinosine 3',5'-Cyclic Phosphate] | slightly greater specificity for the cAMP-dependent enzyme |
| 0.070 | 0.011 |  | 400 µM | 70 µM | slight activation | slight activation | O=C(c1ccccc1)c1nc2c(=O)[nH]cnc2n1[C@@H]1O[C@@H]2COP(=O)(O)O[C@H]2[C@H]1O [Compound 21, 8-Benzoylinosine 3',5'-Cyclic Phosphate] | slightly greater specificity for the cAMP-dependent enzyme |
